This note sets out measurements from patent US20210221822A1, “TRICYCLIC DERIVATIVES INHIBITOR, PREPARATION METHOD, AND APPLICATIONS THEREOF” (Jiangsu Hansoh Pharmaceutical Group Co., Ltd., priority 2018, published 2021).

SMILES strings stand for the structures. Where two headings read alike, the source gives them in different places.

A short description of data set [1]: Toxicokinetics in the 7-day repeated intragastric administration study in SD rats. It is filed as in vivo, Sprague-Dawley (SD) rats. The conditions noted are these: Sprague-Dawley, rat, plasma, po, read-out: average system exposure AUC. The text has this: Liquid chromatography−mass spectrometry (detector: API4000, electrospray source (ESI) positive ion mode, column: Agilent ZORBAX XDB-C18 (3.5 μm, 2.1×50 mm)), which was used for the biological analysis of plasma sample.
(§1) 1) In the experiment, 112 rats (56 rats/sex) were divided into 14 groups by sex and body weight, wherein 70 rats were used for toxicology study (groups 1 to 7, 5 rats/sex/group) and 42 rats were used for toxicokinetics study (groups 8 to 14, 3 rats/sex/group).
(§2) 3) The animals in groups 2 and 9, groups 3 and 10, and groups 4 and 11 were intragastrically administered GDC-0077 at 10, 30 and 60 mg/kg, respectively.
(§3) 4) The animals in groups 5 and 12, groups 6 and 13, and groups 7 and 14 were intragastrically administered the compound of Example 51 at 10, 30 and 60 mg/kg, respectively.
(§4) 5) The animals were administered once a day for 7 consecutive days (the animals in groups 7 and 14 were administered for 6 consecutive days).
(§5) 7) During the experiment, items such as clinical observation, body weight, food intake, clinicopathological indicators (blood cell count, coagulation function, blood biochemistry), toxicokinetics and the like were studied.

The nature of data set [2]: Toxicity test of a 7-day repeatedly intragastric administration in SD rats. It counts as in vivo.
Description: as §1
2) As the vehicle control group, the animals in groups 1 and 8 were intragastrically administered 20% aqueous SBE-(3-CD (Captisol) solution.
as §2, §3, §4
6) The administration volume was 10 mL/kg.
as §5
8) All animals were euthanized on Day 8 (the animals in groups 7 and 14 were euthanized after administration on Day 6).
9) During the experiment, gross anatomy observation was carried out on animals in groups 1 to 7, animals in group 14 and dead animals (including animals in toxicokinetics study), and histopathological examination was carried out on abnormal tissues, gastrointestinal tissues (such as colon and cecum) and immune tissues (such as thymus).

[3] abbreviates: SD rats, 10, 30 and 60 mg/kg (low, middle, high dose).

Regarding `C[C@H](Nc1ccc2c(c1)OCCn1cc(N3C(=O)OC[C@H]3C(F)F)nc1-2)C(N)=O` [GDC-0077, reference compound], the AUC (as a rule, the area under the concentration-time curve, a measure of exposure) in data set [1] (10 mg/kg intragastric once a day, after the last administration, female) was determined as 2250 ng·h/mL; in data set [1] (10 mg/kg intragastric once a day, after the last administration, male), 845 ng·h/mL; in data set [1] (30 mg/kg intragastric once a day, after the last administration, female) it was 6510 ng·h/mL; in data set [1] (30 mg/kg intragastric once a day, after the last administration, male), 3000 ng·h/mL; in data set [1] (60 mg/kg intragastric, after the first administration, female) it was 22800 ng·h/mL; in data set [1] (60 mg/kg intragastric, after the first administration, male), 15400 ng·h/mL. For the same molecule, the “main target organs of the toxicity” value in data set [2] (SD rats) is “gastrointestinal tissues (such as stomach and cecum) and immune tissues (such as thymus)”. For the same molecule, the “Blood cell counting and coagulation function” value in data set [2] (SD rats, 10, 30 and 60 mg/kg) was “In each dose group, Retic decreased in both male and female animals”. Further, the “Pathology, pathological changes under the microscope” value in data set [2] (SD rats, 10, 30 and 60 mg/kg) was “atrophy of goblet cells in the cecal mucosa, increase in thymic tingible body macrophages, and erosion, bleeding and edema of gastric mucosal”. Also, in data set [2] (setting [3]), the “Body weight and food intake” value was “In the middle-dose and high-dose groups, the final body weight of all animals declined, and their food intake also declined during the same period”. Besides, the Clinical observation entry in data set [2] (setting [3]) is “In the high-dose group, abnormal symptoms such as arched back, loose stools, perianal contamination and fluffy coat were observed”. Further, the Near-death/death result in data set [2] (SD rats, dose of 60 mg/kg) was “near-dead/dead animals were found”. In data set [2] (SD rats, intragastric once/day for 7 days), this molecule displayed a lethal dose of 60 mg/kg. In addition, in data set [2] (both sexes, Sprague-Dawley, rat, in vivo, po, SD rats, intragastric once/day for 7 days, read-out: maximum tolerated dose (MTD)), the maximum tolerated dose (MTD) (commonly the largest dose that counted as tolerated) at 7 days worked out at 30 mg/kg.
